Columns and labels:
Type in all cases: biochemical
human Itk kinase = target: T1, human Itk kinase (Homo sapiens, UniProt Q08881); test: Itk Inhibition Assay (radioactivity-based or spectrophotometric); details: inhibition of human Itk kinase
T1 sequence (Q08881 1-620): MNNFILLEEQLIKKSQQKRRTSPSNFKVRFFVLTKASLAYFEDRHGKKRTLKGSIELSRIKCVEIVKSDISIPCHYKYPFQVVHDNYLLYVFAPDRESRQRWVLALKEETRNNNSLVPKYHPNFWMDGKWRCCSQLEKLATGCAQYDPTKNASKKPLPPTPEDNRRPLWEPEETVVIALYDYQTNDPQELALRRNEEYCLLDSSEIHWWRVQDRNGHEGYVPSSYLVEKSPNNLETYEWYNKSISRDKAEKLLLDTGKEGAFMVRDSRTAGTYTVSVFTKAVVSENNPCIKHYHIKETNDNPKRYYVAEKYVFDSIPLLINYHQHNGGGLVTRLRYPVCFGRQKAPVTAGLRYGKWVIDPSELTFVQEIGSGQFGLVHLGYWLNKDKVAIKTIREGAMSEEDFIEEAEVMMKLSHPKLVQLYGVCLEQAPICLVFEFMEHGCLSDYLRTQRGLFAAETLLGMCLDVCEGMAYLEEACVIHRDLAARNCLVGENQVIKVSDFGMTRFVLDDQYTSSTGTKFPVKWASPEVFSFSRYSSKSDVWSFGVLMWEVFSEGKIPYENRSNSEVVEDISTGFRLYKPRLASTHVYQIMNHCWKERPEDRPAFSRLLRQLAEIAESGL
Method: The compounds of the present invention can be evaluated as inhibitors of human Itk kinase using either a radioactivity-based or a spectrophotometric assay. In general, compounds of the invention, including compounds in Table 1, are effective for the inhibition of Itk. Specifically, compounds I.1 to I.5 and compound I.7 have a Ki value of <1 μM and compounds I.6 and I.8 have a Ki value of >1 μM.
Assays were carried out in a mixture of 100 mM HEPES (pH 7.5), 10 mM MgCl2, 25 mM NaCl, 0.01% BSA and 1 mM DTT. Final substrate concentrations were 15 μM [γ-^33P]ATP (400 μCi ^33P ATP/μmol ATP, Amersham Pharmacia Biotech/Sigma Chemicals) and 2 μM peptide (SAM68 protein Δ332-443). Assays were carried out at 25° C. in the presence of 30 nM Itk. An assay stock buffer solution was prepared containing all of the reagents listed above, with the exception of ATP and the test compound of interest. 50 μL of the stock solution was placed in a 96 well plate followed by addition of 1.5 μL of DMSO stock containing serial dilutions of the test compound (typically starting from a final concentration of 15 μM with 2-fold serial dilutions) in duplicate (final DMSO concentration 1.5%). The plate was pre-incubated for 10 minutes at 25° C. and the reaction initiated by addition of 50 μL [γ-^33P]ATP (final concentration 15 μM).
The reaction was stopped after 10 minutes by the addition of 50 μL of a TCA/ATP mixture (20% TCA, 0.4 mM ATP). A Unifilter GF/C 96 well plate (Perkin Elmer Life Sciences, Cat no. 6005174) was pretreated with 5 μL Milli Q water prior to the addition of the entire reaction mixture (150 μL). […]
IC50 data were calculated from non-linear regression analysis of the initial rate data using the Prism software package (GraphPad Prism version 3.0cx for Macintosh, GraphPad Software, San Diego, Calif., USA). […]
Ki(app) data were calculated from non-linear regression analysis of the initial rate data using the Prism software package (GraphPad Prism version 3.0cx for Macintosh, GraphPad Software, San Diego, Calif., USA). […]

FLT-3 = target: T2, FLT-3 (Homo sapiens, UniProt P36888); test: FLT-3 kinase inhibition (assays similar to the ones described)
T2 sequence (P36888 27-993): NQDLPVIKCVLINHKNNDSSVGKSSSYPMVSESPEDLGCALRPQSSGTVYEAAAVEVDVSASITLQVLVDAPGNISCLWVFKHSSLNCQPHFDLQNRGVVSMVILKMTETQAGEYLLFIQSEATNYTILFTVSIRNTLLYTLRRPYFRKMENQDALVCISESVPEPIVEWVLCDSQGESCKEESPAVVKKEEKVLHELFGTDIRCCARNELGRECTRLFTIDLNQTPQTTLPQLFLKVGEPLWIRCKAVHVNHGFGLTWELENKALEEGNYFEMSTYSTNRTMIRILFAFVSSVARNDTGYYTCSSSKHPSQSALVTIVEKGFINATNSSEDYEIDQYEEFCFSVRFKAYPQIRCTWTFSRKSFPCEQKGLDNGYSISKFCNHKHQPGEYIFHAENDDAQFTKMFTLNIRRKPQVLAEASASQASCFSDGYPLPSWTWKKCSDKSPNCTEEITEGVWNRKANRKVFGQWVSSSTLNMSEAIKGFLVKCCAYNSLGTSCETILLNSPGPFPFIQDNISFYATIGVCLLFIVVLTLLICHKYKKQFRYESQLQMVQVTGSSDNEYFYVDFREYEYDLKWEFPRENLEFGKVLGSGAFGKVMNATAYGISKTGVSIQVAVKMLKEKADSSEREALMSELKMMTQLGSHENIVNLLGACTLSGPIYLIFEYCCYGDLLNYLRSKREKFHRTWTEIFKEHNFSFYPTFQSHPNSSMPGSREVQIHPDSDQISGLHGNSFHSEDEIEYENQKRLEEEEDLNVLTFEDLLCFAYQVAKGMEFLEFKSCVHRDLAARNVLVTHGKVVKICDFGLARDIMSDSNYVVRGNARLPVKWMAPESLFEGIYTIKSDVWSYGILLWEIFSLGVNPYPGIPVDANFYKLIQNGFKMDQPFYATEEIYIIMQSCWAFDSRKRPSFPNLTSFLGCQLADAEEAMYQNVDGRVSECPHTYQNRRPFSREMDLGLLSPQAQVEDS
Method: (§1) Compound I.9 was tested in assays similar to the ones described herein and found to inhibit FLT-3, JAK2, and JAK3 kinases.

JAK2 = JAK2 (Homo sapiens, UniProt O60674); test: JAK2 kinase inhibition (assays similar to the ones described)
Method: as §1

JAK3 = target: T3, JAK3 (Homo sapiens, UniProt P52333); test: JAK3 kinase inhibition (assays similar to the ones described)
T3 sequence (P52333 1-1124): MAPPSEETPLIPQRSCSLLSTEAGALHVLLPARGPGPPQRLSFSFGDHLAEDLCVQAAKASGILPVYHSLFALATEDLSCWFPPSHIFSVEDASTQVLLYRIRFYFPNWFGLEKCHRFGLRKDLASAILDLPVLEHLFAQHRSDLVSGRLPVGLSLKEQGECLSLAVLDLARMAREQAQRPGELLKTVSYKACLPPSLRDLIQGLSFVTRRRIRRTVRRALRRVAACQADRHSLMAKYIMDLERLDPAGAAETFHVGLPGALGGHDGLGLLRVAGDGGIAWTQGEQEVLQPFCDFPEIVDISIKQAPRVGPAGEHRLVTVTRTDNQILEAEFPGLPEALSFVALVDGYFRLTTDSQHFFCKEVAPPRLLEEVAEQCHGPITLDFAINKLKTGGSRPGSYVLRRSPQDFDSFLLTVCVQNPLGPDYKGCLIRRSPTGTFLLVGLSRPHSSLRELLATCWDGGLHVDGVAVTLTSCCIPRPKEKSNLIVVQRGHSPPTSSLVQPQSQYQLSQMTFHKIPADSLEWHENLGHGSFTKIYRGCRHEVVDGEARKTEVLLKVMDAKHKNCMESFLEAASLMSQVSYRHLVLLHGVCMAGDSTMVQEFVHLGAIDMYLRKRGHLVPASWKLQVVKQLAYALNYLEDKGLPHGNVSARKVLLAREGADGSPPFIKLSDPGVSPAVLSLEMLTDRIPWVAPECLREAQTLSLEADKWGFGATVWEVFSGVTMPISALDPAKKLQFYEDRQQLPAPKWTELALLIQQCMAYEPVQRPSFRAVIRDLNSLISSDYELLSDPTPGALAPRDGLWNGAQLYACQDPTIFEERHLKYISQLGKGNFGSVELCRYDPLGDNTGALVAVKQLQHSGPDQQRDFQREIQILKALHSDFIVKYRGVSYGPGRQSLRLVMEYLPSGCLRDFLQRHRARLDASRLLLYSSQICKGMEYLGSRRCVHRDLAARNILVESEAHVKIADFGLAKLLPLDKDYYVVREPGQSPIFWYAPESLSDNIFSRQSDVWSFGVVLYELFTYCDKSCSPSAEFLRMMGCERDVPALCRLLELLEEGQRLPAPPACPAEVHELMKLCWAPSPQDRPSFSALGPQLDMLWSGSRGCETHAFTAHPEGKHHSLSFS
Method: as §1

JAK2, sequence (O60674 whole entry, species assumed): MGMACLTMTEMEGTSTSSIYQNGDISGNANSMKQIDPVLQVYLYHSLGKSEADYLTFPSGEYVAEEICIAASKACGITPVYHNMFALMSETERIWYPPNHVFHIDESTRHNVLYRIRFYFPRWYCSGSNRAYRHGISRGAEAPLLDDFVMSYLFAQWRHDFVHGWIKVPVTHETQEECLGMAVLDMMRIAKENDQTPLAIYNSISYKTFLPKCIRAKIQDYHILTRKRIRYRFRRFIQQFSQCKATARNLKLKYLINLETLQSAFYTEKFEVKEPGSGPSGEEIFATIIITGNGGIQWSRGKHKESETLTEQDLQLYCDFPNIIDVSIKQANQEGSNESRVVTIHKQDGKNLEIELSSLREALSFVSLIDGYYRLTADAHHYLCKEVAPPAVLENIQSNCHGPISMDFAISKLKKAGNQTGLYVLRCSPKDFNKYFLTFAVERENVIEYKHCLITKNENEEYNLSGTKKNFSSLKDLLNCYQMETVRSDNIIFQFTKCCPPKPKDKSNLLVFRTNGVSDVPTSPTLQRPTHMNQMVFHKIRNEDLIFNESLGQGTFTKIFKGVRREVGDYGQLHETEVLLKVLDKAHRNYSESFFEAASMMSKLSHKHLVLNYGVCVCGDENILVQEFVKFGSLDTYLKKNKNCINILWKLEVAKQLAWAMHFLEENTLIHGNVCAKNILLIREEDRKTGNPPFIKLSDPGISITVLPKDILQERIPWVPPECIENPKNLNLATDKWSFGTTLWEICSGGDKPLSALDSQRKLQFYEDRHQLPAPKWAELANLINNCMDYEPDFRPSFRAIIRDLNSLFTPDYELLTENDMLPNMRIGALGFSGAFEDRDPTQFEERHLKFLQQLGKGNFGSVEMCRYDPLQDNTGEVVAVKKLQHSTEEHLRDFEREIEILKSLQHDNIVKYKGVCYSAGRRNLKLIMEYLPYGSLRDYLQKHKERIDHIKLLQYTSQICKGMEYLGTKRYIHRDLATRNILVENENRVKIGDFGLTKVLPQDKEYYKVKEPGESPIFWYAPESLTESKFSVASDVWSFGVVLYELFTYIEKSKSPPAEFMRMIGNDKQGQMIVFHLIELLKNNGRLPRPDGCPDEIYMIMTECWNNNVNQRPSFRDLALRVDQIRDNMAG

Row | Ki (human Itk kinase) | inhibition of FLT-3 kinase (in words) (FLT-3) | inhibition of JAK2 kinase (in words) (JAK2) | inhibition of JAK3 kinase (in words) (JAK3) | SMILES
1 | > 1 µM |  |  |  | CNc1cncc(-c2c[nH]c(=O)c(/C=C3\C(=O)Nc4ccccc43)c2)n1 [I.6, 3-((1,2-dihydro-5-(6-(methylamino)pyrazin-2-yl)-2-oxopyridin-3-yl)methylene)indolin-2-one]
2 |  | inhibit | inhibit | inhibit | O=c1[nH]cc(-c2ccccc2Cl)cc1/C=C/c1cnc2ccccn12 [I.9]
3 | < 1 µM |  |  |  | CNc1cncc(-c2c[nH]c(=O)c(/C=C/c3cc(CN4CCN(S(C)(=O)=O)CC4)ccc3[N+](=O)[O-])c2)n1 [I.7]
4 | > 1 µM |  |  |  | CNc1cncc(-c2c[nH]c(=O)c(/C=C/c3cc(OC)ccc3[N+](=O)[O-])c2)n1 [I.8]
